≈ marks a conversion by molar mass, not a printed value.
What was measured:
Type in all cases: functional
[1] = test system: Candida albicans; test: In vivo antifungal activity against Candida albicans TA infected in CDF-1 mouse dosed orally assessed as survival of mouse; conditions: po
[2] = test system: Candida albicans; test: Antifungal activity against Candida albicans assessed as reduction in fungal cell growth incubated for 48 hrs by broth microdilution susceptibility method
[3] = test system: Candida albicans; test: Antifungal activity against Candida albicans TA
[4] = test system: Candida albicans; test: Antifungal activity against Candida albicans NCCS 3471 assessed as inhibition zone at 50 ug/ml incubated for 3 to 4 days by disk diffusion method; conditions: read-out: IZ
[5] = test system: Aspergillus fumigatus; test: Antifungal activity against Aspergillus fumigatus NCIM 902 assessed as inhibition zone at 50 ug/ml incubated for 3 to 4 days by disk diffusion method; conditions: read-out: IZ
[6] = test system: Aspergillus niger; test: Antifungal activity against Aspergillus niger assessed as inhibition zone at 250 ug/ml; conditions: read-out: IZ
[7] = test system: Candida albicans; test: Antifungal activity against Candida albicans assessed as inhibition zone at 250 ug/ml; conditions: read-out: IZ
[8] = test system: Aspergillus niger; test: Antifungal activity against Aspergillus niger assessed as reduction in fungal cell growth incubated for 48 hrs by broth microdilution susceptibility method
[9] = test system: Fusarium oxysporum; test: Antifungal activity against Fusarium oxysporum assessed as reduction in fungal cell growth incubated for 24 and 72 hrs by cup plate method
[10] = test system: Candida albicans; test: Antifungal activity against Candida albicans assessed as reduction in fungal cell growth incubated for 24 and 72 hrs by cup plate method
[11] = test system: Aspergillus flavus; test: Antifungal activity against Aspergillus flavus assessed as reduction in fungal cell growth incubated for 24 and 72 hrs by cup plate method
[12] = test system: Candida albicans; test: Antifungal activity against Candida albicans assessed as inhibition zone at 125 ug/ml by disk diffusion method; conditions: read-out: IZ

C[C@@H](n1nnn(-c2ccc(OC(F)(F)C(F)F)cc2)c1=O)[C@](O)(Cn1cncn1)c1ccccc1
ED50 [1]: 0.71 to 2 mg/kg

O=C1CC(=O)N(c2ccccc2)C(=S)N1/N=C/c1cc2ccccc2n2nnnc12
MIC [2]: ≥ 100 mg/L

C[C@@H](n1cnnn1)[C@](O)(Cn1cncn1)c1ccc(F)cc1
ED50 [1]: 0.18 to 1.54 mg/kg | MIC [3]: 12.5 to 100 mg/L (≈ 41.2 to 330 µM)

O=C1/C(=C/c2ccccc2)C(=O)N(c2ccc(Cl)cc2)C(=S)N1/N=C/c1cc2ccccc2n2nnnc12
MIC [2]: ≥ 100 mg/L

COc1ccccc1-n1nnnc1-c1cccnc1
zone of inhibition at 50 µg/mL [4]: 10 to 19 mm | zone of inhibition at 50 µg/mL [5]: 10 to 19 mm

Oc1ccc(-c2nnnn2-c2nc3ccccc3s2)cc1
zone of inhibition at 250 µg/mL [6]: 13 to 23 mm | zone of inhibition at 250 µg/mL [7]: 13 to 23 mm

C[C@@H](n1nnn(-c2ccc(F)cc2)c1=O)[C@](O)(Cn1cncn1)c1ccccc1
ED50 [1]: 0.71 to 2 mg/kg

Clc1ccc(-c2nn[se]c2-n2nnc(-c3ccccc3Cl)n2)cc1
MIC [2]: 6.25 mg/L (≈ 14.8 µM) | MIC [8]: 6.25 mg/L (≈ 14.8 µM)

O=[N+]([O-])c1cccc(-c2nnnn2-c2nc3ccccc3s2)c1
zone of inhibition at 250 µg/mL [6]: 13 to 23 mm | zone of inhibition at 250 µg/mL [7]: 13 to 23 mm

Cc1ccc(-n2nnnc2-c2cccnc2)cc1
zone of inhibition at 50 µg/mL [4]: 10 to 19 mm | zone of inhibition at 50 µg/mL [5]: 10 to 19 mm

COc1ccc(-c2nn[se]c2-n2nnc(-c3ccccc3Cl)n2)cc1
MIC [2]: 100 to 400 mg/L (≈ 239 to 958 µM) | MIC [8]: 100 to 400 mg/L (≈ 239 to 958 µM)

C[C@@H](n1ncnn1)[C@](O)(Cn1cncn1)c1ccccc1F
MIC [3]: 100 mg/L (≈ 330 µM)

O=[N+]([O-])c1ccccc1-n1nnnc1-c1cccnc1
zone of inhibition at 50 µg/mL [4]: 10 to 19 mm | zone of inhibition at 50 µg/mL [5]: 10 to 19 mm

Cc1ccc(-c2nnn(-c3[se]nnc3-c3ccc(Cl)cc3)n2)cc1
MIC [2]: 100 to 400 mg/L (≈ 249 to 996 µM) | MIC [8]: 100 to 400 mg/L (≈ 249 to 996 µM)

S=C1N=C(c2ccccc2)CC(c2cc3ccccc3n3nnnc23)N1 (centres undefined)
MIC [2]: ≥ 100 mg/L

Clc1ccc(-c2nnn(-c3[se]nnc3-c3ccc(Cl)cc3)n2)cc1
MIC [2]: 6.25 mg/L (≈ 14.8 µM) | MIC [8]: 6.25 mg/L (≈ 14.8 µM)

C[C@@H](n1nnn(-c2ccc(OCC(F)(F)C(F)F)cc2)c1=O)[C@](O)(Cn1cncn1)c1ccccc1
ED50 [1]: 0.71 to 2 mg/kg

C[C@@H](n1ncnn1)[C@](O)(Cn1cncn1)c1ccc(Cl)cc1
MIC [3]: 100 mg/L (≈ 313 µM)

Clc1ccccc1C(c1ccccc1)(c1ccccc1)n1ccnc1 [CLOTRIMAZOLE]
MIC [2]: 12.5 mg/L (≈ 36.2 µM)

O=[N+]([O-])c1ccc(-n2nnnc2-c2cccnc2)cc1
zone of inhibition at 50 µg/mL [4]: 10 to 19 mm | zone of inhibition at 50 µg/mL [5]: 10 to 19 mm

Clc1ccc(-c2nn[se]c2-n2nnc(-c3ccccc3)n2)cc1
MIC [2]: 100 to 400 mg/L (≈ 258 to 1030 µM) | MIC [8]: 100 to 400 mg/L (≈ 258 to 1030 µM)

Cc1ccc(N2C(=O)/C(=C\c3ccccc3)C(=O)N(/N=C/c3cc4ccccc4n4nnnc34)C2=S)cc1
MIC [2]: ≥ 100 mg/L

Cc1cccc2c1cc(/C=C/C(=O)c1cc(Br)ccc1O)c1nnnn12
MIC [9]: 25 to 100 mg/L (≈ 61.1 to 244 µM) | MIC [10]: 25 to 100 mg/L (≈ 61.1 to 244 µM) | MIC [11]: 25 to 100 mg/L (≈ 61.1 to 244 µM)

CN(C)c1ccc(/C=C2/C(=O)N(/N=C/c3cc4ccccc4n4nnnc34)C(=S)N(c3ccc(Cl)cc3)C2=O)cc1
MIC [2]: ≥ 100 mg/L

Cc1ccc(N2C(=O)/C(=C\c3ccc(N(C)C)cc3)C(=O)N(/N=C/c3cc4ccccc4n4nnnc34)C2=S)cc1
MIC [2]: ≥ 100 mg/L

C[C@@H](n1ncnn1)[C@](O)(Cn1cncn1)c1ccc(F)cc1F
MIC [3]: 100 mg/L (≈ 311 µM)

Cc1ccc2c(c1)cc(C1CC(c3cc(Br)ccc3O)=NN1)c1nnnn12 (centres undefined)
MIC [9]: 25 to 100 mg/L (≈ 59.1 to 236 µM) | MIC [10]: 25 to 100 mg/L (≈ 59.1 to 236 µM) | MIC [11]: 25 to 100 mg/L (≈ 59.1 to 236 µM)

COc1ccc2cc(C3CC(c4cc(Br)ccc4O)=NO3)c3nnnn3c2c1 (centres undefined)
MIC [9]: 25 to 100 mg/L (≈ 56.8 to 227 µM) | MIC [10]: 25 mg/L (≈ 56.8 µM) | MIC [11]: 25 mg/L (≈ 56.8 µM)

C[C@@H](n1nnn(-c2ccc(OCC(F)(F)F)cc2)c1=O)[C@](O)(Cn1cncn1)c1ccccc1
ED50 [1]: 0.71 to 2 mg/kg

C[C@@H](n1ncnn1)[C@](O)(Cn1cncn1)c1ccc(F)cc1
MIC [3]: 100 mg/L (≈ 330 µM)

Cc1ccc2cc(/C=C3\SC(=S)N(CC(=O)O)C3=O)c3nnnn3c2c1
MIC [9]: 25 to 50 mg/L (≈ 64.9 to 130 µM) | MIC [10]: 25 to 50 mg/L (≈ 64.9 to 130 µM) | MIC [11]: 25 to 50 mg/L (≈ 64.9 to 130 µM)

CCOC(=O)C(C#N)C(c1cc2ccccc2n2nnnc12)P(=O)(OCC)OCC (centres undefined)
MIC [9]: 10 to 25 mg/L (≈ 23.2 to 58 µM) | MIC [10]: 10 to 25 mg/L (≈ 23.2 to 58 µM) | MIC [11]: 10 to 25 mg/L (≈ 23.2 to 58 µM)

COc1ccc(/N=C/c2cc3cc(-c4nc5ccccc5[nH]4)ccc3n3nnnc23)cc1
zone of inhibition at 125 µg/mL [12]: 7 to 12 mm

c1ccc(-n2nnnc2-c2cccnc2)cc1
zone of inhibition at 50 µg/mL [4]: 10 to 19 mm | zone of inhibition at 50 µg/mL [5]: 10 to 19 mm

COc1ccc(-c2nn[se]c2-n2nnc(-c3ccc(Cl)cc3)n2)cc1
MIC [2]: 100 to 400 mg/L (≈ 239 to 958 µM) | MIC [8]: 100 to 400 mg/L (≈ 239 to 958 µM)

Cc1ccc2cc(/C=C/C(=O)c3cc(Br)ccc3O)c3nnnn3c2c1
MIC [9]: 25 to 100 mg/L (≈ 61.1 to 244 µM) | MIC [10]: 25 to 100 mg/L (≈ 61.1 to 244 µM) | MIC [11]: 25 to 100 mg/L (≈ 61.1 to 244 µM)

O=C1/C(=C/c2ccccc2)C(=O)N(c2ccccc2)C(=S)N1/N=C/c1cc2ccccc2n2nnnc12
MIC [2]: ≥ 100 mg/L

Cc1ccc(/N=C/c2cc3cc(-c4nc5ccccc5[nH]4)ccc3n3nnnc23)cc1
zone of inhibition at 125 µg/mL [12]: 7 to 12 mm

From ChEMBL document CHEMBL4393657, “Tetrazole hybrids and their antifungal activities” (2019)
